{
  "source": "paper PMC6396121",
  "about": "(ACS Omega, 2019)",
  "key": {"[1]": {"test_system": "BHK cells expressing KRAS^G12V", "test": "Western analysis of cell signaling in BHK cells expressing KRAS G12V", "type": "cell-based, hamster"}, "Rap1b": {"target": "T1, Rap1b (Homo sapiens, UniProt P61224)", "T1 sequence (P61224 1-166)": "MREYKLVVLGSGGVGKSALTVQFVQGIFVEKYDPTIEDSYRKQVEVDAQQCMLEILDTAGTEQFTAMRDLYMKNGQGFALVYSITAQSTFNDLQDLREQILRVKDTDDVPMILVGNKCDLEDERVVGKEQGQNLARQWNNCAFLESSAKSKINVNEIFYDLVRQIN", "test": "MST binding to control GTPase Rap1b", "conditions": "control RAS-related small GTPase"}, "[2]": {"test_system": "BHK cells expressing HRAS^G12V", "test": "Western analysis of cell signaling in BHK cells expressing HRAS G12V", "type": "cell-based, hamster"}, "[3]": {"test_system": "lung cancer cells harboring KRAS^G12D or KRAS^G12V", "test": "CyQUANT proliferation, lung cancer cells with mutant KRAS", "type": "cell-based", "conditions": "5 μM compound, 72 h"}, "[4]": {"target": "KRAS^G12D and RBD interaction (Homo sapiens, UniProt P01116, G12D)", "test": "FLIM-FRET of GFP-KRAS G12D with mCherry-RBD in BHK cells", "type": "cell-based, hamster", "conditions": "1 μM compound for 2 h; ∼1.93 ns untreated, ∼2.3 ns without RBD"}, "KRASWT": {"target": "KRASWT (Homo sapiens, UniProt P01116)", "test": "Intrinsic nucleotide exchange", "type": "biochemical", "conditions": "1 μM compound"}, "^GDPKRAS^WT": {"target": "^GDPKRAS^WT (Homo sapiens, UniProt P01116)", "test": "MST binding to GDP-bound KRAS WT", "conditions": "GDP state"}, "[5]": {"test_system": "BHK cells expressing KRAS^G12D", "test": "Western analysis of cell signaling in BHK cells expressing KRAS G12D", "type": "cell-based, hamster"}, "HRAS^WT": {"target": "HRAS^WT (Homo sapiens, UniProt P01112)", "test": "MST binding to HRAS WT", "conditions": "GDP and GTP-bound forms"}, "KRAS–Raf^RBD interaction": {"target": "KRAS–Raf^RBD interaction (Homo sapiens, UniProt P01116)", "test": "Fluorescence polarization of KRAS binding to GST-Raf RBD", "type": "biochemical", "conditions": "1 μM compound"}, "[6]": {"test_system": "lung cancer cells with wild-type KRAS", "test": "CyQUANT proliferation, lung cancer cells with wild-type KRAS", "type": "cell-based", "conditions": "5 μM compound, 72 h"}, "KRAS": {"target": "KRAS (Homo sapiens, UniProt P01116)", "test": "Intrinsic nucleotide", "type": "biochemical", "conditions": "1 μM compound"}, "NRAS^WT": {"target": "NRAS^WT (Homo sapiens, UniProt P01111)", "sequence (P01111 1-166)": "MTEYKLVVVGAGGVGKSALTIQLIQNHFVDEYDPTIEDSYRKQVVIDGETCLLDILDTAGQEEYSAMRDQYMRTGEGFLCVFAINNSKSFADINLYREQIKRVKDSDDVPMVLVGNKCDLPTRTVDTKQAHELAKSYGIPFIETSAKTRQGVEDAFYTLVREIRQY", "test": "MST binding to NRAS WT", "conditions": "GDP and GTP-bound forms"}, "[7]": {"target": "KRAS^G12D–Raf^RBD interaction (Homo sapiens, UniProt P01116, G12D)", "test": "Pull-down of GFP-KRAS G12D by GST-Raf RBD in cell lysates", "type": "biochemical", "conditions": "1 μM compound"}, "KRAS and SOS [8]": {"target": "T2, KRAS and SOS (Homo sapiens, UniProt P01116)", "test": "SOS-mediated nucleotide exchange", "type": "biochemical", "conditions": "1 μM compound"}, "KRAS and SOS [9]": {"target": "T2, KRAS and SOS", "test": "SOS-mediated nucleotide", "type": "biochemical"}, "[10]": {"target": "HRAS^G12V with Raf^RBD interaction (Homo sapiens, UniProt P01112, G12V)", "test": "FLIM-FRET of GFP-HRAS G12V with mCherry-RBD in BHK cells", "type": "cell-based, hamster", "conditions": "1 μM compound"}, "[11]": {"target": "KRAS^G12D–cRaf interaction (Homo sapiens, UniProt P01116, G12D)", "test": "FLIM-FRET of GFP-KRAS G12D with RFP-cRaf", "type": "cell-based, hamster", "conditions": "1 μM compound"}, "[12]": {"test_system": "oral cancer cells with or without mutant HRAS", "test": "CyQUANT proliferation, oral cancer cells", "type": "cell-based", "conditions": "5 μM compound, 72 h"}, "^GDPKRAS^G12D": {"target": "^GDPKRAS^G12D (Homo sapiens, UniProt P01116, G12D)", "test": "MST binding to GDP-bound KRAS G12D", "conditions": "GDP state"}},
  "data": [
    {"smiles": "Cc1nn2c(N3CCN(CCO)CC3)cc(-c3ccccc3)nc2c1-c1ccccc1", "note": "[Compound 11, 2-[4-(8-methyl-3,9-diphenyl-2,6,7-triazabicyclo[4.3.0]nona-2,4,7,9-tetraen-5-yl)piperazin-1-yl]ethanol]", "values": [
      {"measurement": "effect on p-ERK and p-cRaf levels", "setting": "[1]", "value": "dose-dependently decreases"},
      {"measurement": "binding detected by MST", "setting": "Rap1b", "value": "very weak or no binding"},
      {"measurement": "effect on p-AKT levels", "setting": "[2]; western", "value": "no statistically significant effect"},
      {"measurement": "effect on p-ERK and p-cRaf levels", "setting": "[2]; western, ligand concentration range tested", "value": "less effect"},
      {"measurement": "growth relative to DMSO control", "setting": "[3]", "value": "30–35%"},
      {"measurement": "GFP fluorescence lifetime", "setting": "[4]", "value": "~2.02", "unit": "ns"},
      {"measurement": "maximum reduction in rate", "setting": "KRASWT", "value": "≤ 5", "unit": "%"},
      {"measurement": "binding detected by MST", "setting": "^GDPKRAS^WT", "value": "very weak or no binding"},
      {"measurement": "drop in p-ERK levels", "setting": "[5]; 1 μM, 3 h treatment", "value": "about 50%"},
      {"measurement": "reduction of p-ERK levels", "setting": "[5]; 5 μM, expanded concentration range", "value": "~50", "unit": "%"},
      {"measurement": "concentrations at which p-ERK levels decreased", "setting": "[5]; primary western screen", "value": "≥ 1", "unit": "µM"},
      {"measurement": "effect on p-AKT levels (AKT pathway signaling)", "setting": "[5]; western", "value": "inhibits signaling through the AKT pathway but to a lesser extent than the MAPK pathway"},
      {"measurement": "binding detected by MST", "setting": "HRAS^WT", "value": "very weak or no binding"},
      {"measurement": "fold reduction of affinity of KRAS to Raf^RBD", "setting": "KRAS–Raf^RBD interaction", "value": "~13", "unit": "fold"},
      {"measurement": "reduction of polarization (RAS–Raf^RBD interaction)", "setting": "KRAS–Raf^RBD interaction; at 2 μM GST–Raf^RBD", "value": "> 80", "unit": "%"},
      {"measurement": "growth relative to DMSO control", "setting": "[6]", "value": "60–80%"},
      {"measurement": "maximum reduction in rate", "setting": "KRAS", "value": "≤ 5", "unit": "%"},
      {"measurement": "binding detected by MST", "setting": "NRAS^WT", "value": "very weak or no binding"},
      {"measurement": "decrease in GFP–KRAS^G12D levels pulled down", "setting": "[7]", "value": "> 50", "unit": "%"},
      {"measurement": "maximum reduction in rate", "setting": "KRAS and SOS [8]", "value": "≤ 5", "unit": "%"},
      {"measurement": "effect on SOS-mediated nucleotide release rate", "setting": "KRAS and SOS [9]", "value": "only modestly decreased"},
      {"measurement": "maximum reduction in rate", "setting": "KRAS and SOS [9]; 1 μM compound", "value": "≤ 5", "unit": "%"},
      {"measurement": "effect on interaction of HRAS^G12V with Raf^RBD", "setting": "[10]", "value": "opposite albeit small effect"},
      {"measurement": "quenching of GFP fluorescence lifetime (KRAS^G12D–cRaf interaction)", "setting": "[11]", "value": "significantly reduced"},
      {"measurement": "growth relative to DMSO control", "setting": "[12]", "value": "60–80%"},
      {"measurement": "binding detected by MST", "setting": "^GDPKRAS^G12D", "value": "very weak or no binding"}
    ]},
    {"smiles": "N#CC(=C(/N)Sc1ccccc1N)/C(C#N)=C(/N)Sc1ccccc1N", "note": "[Compound U0126, reference compound]", "values": [
      {"measurement": "effect on MAPK signaling", "setting": "[2]; 10 μM", "value": "almost completely abolished"}
    ]}
  ]
}
